The results in this text go back to patent US7199129B2, “Derivatives of morphine-like opioid compounds” (Monash University, priority 2001, dated 2007).

In data set [1] the test system is ICR mice. The experiment in a line: Phenylquinone-induced writhing assay in mice (Example 18). Type of data set: in vivo. The following applies: IP; for Number of Writhings Individual: individual mice. As for the experimental part: Testing on compounds KRS-6-26 and JFY-058 was also carried out under contract by MDS Services—Taiwan Ltd. The study was designed to evaluate the effects of the compounds as analgesics in the phenylquinone-induced writhing assay described in detail in Example 13(Siegmund et al, 1957).
(§1) In each case, a serial 2-fold dosage variance was used in the test, from 128 mg/kg to 1 mg/kg (8 doses in total). Groups of 3 male or female ICR mice weighing 22±2 g were employed. A serial 2-fold dosage variance was used in the test (8 doses in total). Variant doses (1, 2, 4, 8, 16, 32, 64 and 128 mg/kg) of test substances were administered intraperitoneally (IP). A vehicle of 2% Tween 80 in 0.9% NaCl was used for the intraperitoneal injection. The control group received vehicle alone. […] A reduction in the number of writhes by 50 percent or more (≧50%) relative to the vehicle-treated group indicated possible analgesic activity.
(In general: In writhing tests, fewer writhes than in controls are read as antinociception.)

Data set [2] deals with ICR mice. The experiment in a line: Straub tail behaviour (indicator of CNS activity) and observed signs in test animals. The source says:
The Straub test is an indicator of CNS activity.
The tail-flick test is thought to involve central nervous system activity, and therefore provides further confirmation of the Straub tail test.

The next data set deals with T1, human δ-opiate receptor (Homo sapiens, UniProt P41143).
T1 construct: purchased MDS Pharma Services 260110
As to the kind of experiment: In vitro opiate receptor radioligand binding assay, δ. The following applies: test compound 10 μM; read-out: Percentage inhibition of radioligand binding, δ-opiate receptor. As for the experimental part: (§2) To characterise the target specificity of the compounds, KRS-5-150 and KRS-6-26 were tested at a concentration of 10 μM for their ability to inhibit the binding of a radioligand to human δ-, κ-, or μ-opiate receptors in vitro using commercially available assays (MDS Pharma Services; assay catalogue numbers 260110, 260210 and 260410 respectively).
(§3) Percentage inhibition of radioligand binding to human opioid receptors in vitro by test compounds (10 μM)

For a further data set, the target named is T2, human κ-opiate receptor (Homo sapiens, UniProt P41145).
T2 construct: purchased MDS Pharma Services 260210
The experiment in a line: In vitro opiate receptor radioligand binding assay, κ. The following applies: test compound 10 μM; read-out: Percentage inhibition of radioligand binding, κ-opiate receptor. As for the experimental part: as §2, §3

The next data set has as its target T3, human μ-opiate receptor (Homo sapiens, UniProt P35372).
T3 construct: purchased MDS Pharma Services 260410
As to the kind of experiment: In vitro opiate receptor radioligand binding assay, μ. The following applies: test compound 10 μM; read-out: Percentage inhibition of radioligand binding, μ-opiate receptor. The procedure:
as §2, §3

In data set [3] the test system is ICR mice. As to the kind of experiment: Phenylquinone-induced writhing model in mice (Example 16). Type of data set: in vivo. The following applies: IP, 3 mg/kg, Table 1. The procedure:
as §1, with “KRS-5-150 was evaluated for possible analgesic activity in the phenylquinone-induced writhing model in mice (Siegmund et al, 1957). A” for “In each case, a”

For data set [4], the system named is ICR mice. The experiment in a line: Radiant heat-induced tail-flick response assay in mice. The following applies: IP, 10 mg/kg. In kind it is in vivo. The procedure: For the tail-flick assay, groups of four male or female ICR mice weighing 22±2 g were used, and the test compound dissolved in 2% Tween 80/0.9% NaCl was administered intraperitoneally. The compound was administered intraperitoneally at 4, 8, 16 or 32 mg/kg, using 2% Tween 80—0.9% NaCl as the vehicle. Controls received vehicle alone. Morphine-HCl at a dose of 10 mg/kg was used as a positive control. At the pre-treatment point (0 minutes) a focused beam of radiant heat was applied to the middle dorsal surface of the tail to elicit a tail-flick response. […] The time required to elicit a pain response was recorded for each animal at 30 minutes following administration of the test compound. A prolongation of 50% or more ≧50% of the time required to elicit tail-flick response indicated possible analgesic activity.

Several values for one entry are separate records, joined by “and”; a condition that tells them apart may be missing. Identical values can stand only once. Counter-ions that a name gives are not always drawn.

T2 sequence (P41145 whole entry): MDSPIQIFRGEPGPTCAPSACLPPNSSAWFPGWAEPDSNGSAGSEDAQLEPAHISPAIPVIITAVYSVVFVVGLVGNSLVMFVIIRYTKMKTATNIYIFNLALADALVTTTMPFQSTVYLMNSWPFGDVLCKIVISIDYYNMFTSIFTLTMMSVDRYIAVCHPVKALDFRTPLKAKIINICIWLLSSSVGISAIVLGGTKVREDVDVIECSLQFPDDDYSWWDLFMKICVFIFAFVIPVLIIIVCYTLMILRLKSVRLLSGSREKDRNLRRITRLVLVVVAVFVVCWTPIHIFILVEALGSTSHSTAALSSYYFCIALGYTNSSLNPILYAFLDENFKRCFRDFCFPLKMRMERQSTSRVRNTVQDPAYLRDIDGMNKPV
T3 sequence (P35372 whole entry): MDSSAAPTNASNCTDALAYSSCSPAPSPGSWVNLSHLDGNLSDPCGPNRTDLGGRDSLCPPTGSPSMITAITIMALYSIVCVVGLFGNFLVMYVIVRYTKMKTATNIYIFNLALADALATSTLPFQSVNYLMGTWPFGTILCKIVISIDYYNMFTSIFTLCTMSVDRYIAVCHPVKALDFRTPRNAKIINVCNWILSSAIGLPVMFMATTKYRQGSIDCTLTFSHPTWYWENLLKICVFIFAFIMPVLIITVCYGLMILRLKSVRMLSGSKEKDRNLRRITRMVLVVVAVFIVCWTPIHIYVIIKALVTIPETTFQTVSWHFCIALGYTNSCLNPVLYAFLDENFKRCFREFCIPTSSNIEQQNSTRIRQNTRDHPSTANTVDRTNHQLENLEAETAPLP
T1 sequence (P41143 whole entry): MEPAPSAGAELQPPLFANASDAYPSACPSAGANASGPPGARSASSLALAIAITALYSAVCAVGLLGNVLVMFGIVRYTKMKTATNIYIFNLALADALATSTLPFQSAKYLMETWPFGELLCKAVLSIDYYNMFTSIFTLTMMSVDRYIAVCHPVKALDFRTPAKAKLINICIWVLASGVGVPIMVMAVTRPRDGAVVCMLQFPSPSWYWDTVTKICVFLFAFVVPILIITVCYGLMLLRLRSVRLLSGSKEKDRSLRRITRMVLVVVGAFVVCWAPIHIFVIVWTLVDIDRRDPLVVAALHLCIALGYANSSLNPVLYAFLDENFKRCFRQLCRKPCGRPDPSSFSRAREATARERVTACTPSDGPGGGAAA

The term % Inhibition denotes the percentage by which the read-out fell short of the control. A high value points to a strong effect. Regarding `Oc1ccc2c3c1OC1C(O)C=CC4C(C2)N(/C(=N/c2ccccc2)Nc2ccccc2)CCC341` (stereo not drawn) [JFY-058, (5α,6α)-7,8-didehydro-4,5-epoxy-17-(N,N′-bisphenylcarboxamidino)morphinan, 3,6-diol], the “% Inhibition” value in the data set with ICR mice [1] (1 mg/kg, Table 5) stood at 17%; in the data set on ICR mice [1] (2 mg/kg, Table 5), 33%; in the data set with ICR mice [1] (4 mg/kg, Table 5), 39%; in the data set with ICR mice [1] (8 mg/kg, Table 5), 39%; in the data set with ICR mice [1] (16 mg/kg, Table 5), 78%; in the data set with ICR mice [1] (32 mg/kg, Table 5) it was 100%. The “% Inhibition” value in the data set with ICR mice [1] (64 mg/kg, Table 5) came to 100%; in the data set on ICR mice [1] (128 mg/kg, Table 5), 100%. The “Number of Writhings Average” value in the data set with ICR mice [1] (1 mg/kg, Table 5) amounted to 15; in the data set on ICR mice [1] (2 mg/kg, Table 5) it was 12; in the data set on ICR mice [1] (4 mg/kg, Table 5), 11; in the data set on ICR mice [1] (8 mg/kg, Table 5) it was 11; in the data set on ICR mice [1] (16 mg/kg, Table 5), 4; with ICR mice [1] (32 mg/kg, Table 5) it was 0. The “Number of Writhings Average” value in the data set with ICR mice [1] (64 mg/kg, Table 5) is given as 0; with ICR mice [1] (128 mg/kg, Table 5), 0. Besides, the “Number of Writhings Individual” value in the data set on ICR mice [1] (1 mg/kg, Table 5) was 17 and 19 and 10; in the data set on ICR mice [1] (2 mg/kg, Table 5) it was 15 and 13 and 8; with ICR mice [1] (4 mg/kg, Table 5) it was 15 and 6 and 11; in the data set on ICR mice [1] (8 mg/kg, Table 5), 3 and 15 and 14; with ICR mice [1] (16 mg/kg, Table 5), 2 and 1 and 8; in the data set on ICR mice [1] (32 mg/kg, Table 5), 0 (2×) and 1. For the same molecule, the “Number of Writhings Individual” value in the data set with ICR mice [1] (64 mg/kg, Table 5) turned out to be 0; in the data set with ICR mice [1] (128 mg/kg, Table 5), 0. For the same molecule, the “analgesic activity (≧50% reduction in writhes)” value in the data set on ICR mice [1] (doses of 128, 64, 32 and 16 mg/kg) is on record as “significant activity”. Besides, the Straub tail behaviour result with ICR mice [2] (IP, 40 minute observation period after administration, Example 18) is “None of the test animals exhibited Straub tail behaviour”.
By inhibition is commonly meant the drop in the measured response relative to a control, in per cent. For `Cc1ccc(N=C(NCCCN2CC[C@]34c5c6ccc(O)c5O[C@H]3[C@@H](O)C=CC4[C@H]2C6)Nc2ccc(C)cc2)cc1` (stereo partly drawn) [KRS-6-26, (5α,6α)-7,8-didehydro-4,5-epoxy-17-(N,N′-bis-p-tolylcarboxamidino-3-aminopropyl)morphinan-3,6-diol], the “% Inhibition” value in the data set with ICR mice [1] (1 mg/kg, Table 4) worked out at 50%; in the data set on ICR mice [1] (2 mg/kg, Table 4), 50%; with ICR mice [1] (4 mg/kg, Table 4) it was 75%; in the data set on ICR mice [1] (8 mg/kg, Table 4), 92%; with ICR mice [1] (16 mg/kg, Table 4), 100%; in the data set with ICR mice [1] (32 mg/kg, Table 4), 100%. Besides, the “% Inhibition” value with ICR mice [1] (64 mg/kg, Table 4) is recorded as 100%; in the data set on ICR mice [1] (128 mg/kg, Table 4) it was 100%. The “Number of Writhings Average” value is listed as 6 with ICR mice [1] (1 mg/kg, Table 4); 6 in the data set with ICR mice [1] (2 mg/kg, Table 4); 3 in the data set with ICR mice [1] (4 mg/kg, Table 4); 1 in the data set on ICR mice [1] (8 mg/kg, Table 4); 0 in the data set on ICR mice [1] (16 mg/kg, Table 4); 0 in the data set on ICR mice [1] (32 mg/kg, Table 4). Also, the “Number of Writhings Average” value with ICR mice [1] (64 mg/kg, Table 4) amounted to 0; in the data set with ICR mice [1] (128 mg/kg, Table 4), 0. Besides, the “Number of Writhings Individual” value was 0 and 13 and 4 with ICR mice [1] (1 mg/kg, Table 4); 13 and 2 and 4 with ICR mice [1] (2 mg/kg, Table 4); 0 and 7 and 2 in the data set with ICR mice [1] (4 mg/kg, Table 4); 1 and 0 and 2 in the data set with ICR mice [1] (8 mg/kg, Table 4); 0 in the data set with ICR mice [1] (16 mg/kg, Table 4); 0 (2×) and 1 with ICR mice [1] (32 mg/kg, Table 4). The “Number of Writhings Individual” value in the data set with ICR mice [1] (64 mg/kg, Table 4) is recorded as 0; with ICR mice [1] (128 mg/kg, Table 4) it was 0. Moreover, in the data set on ICR mice [1] (doses higher than 8 mg/kg), the inhibition in writhing stood at 100%. In addition, the deaths result in the data set on ICR mice [1] (up to 128 mg/kg) is given as “no deaths”. For the same molecule, the inhibition at 10 µM on human δ-opiate receptor stood at 95%; at human κ-opiate receptor, 94%; on human μ-opiate receptor, 99%. Further, the “test animals exhibiting slight Straub tail behaviour” value in the data set on ICR mice [2] (IP, 16 mg/kg, Example 18) is listed as “one”. The “test animals exhibiting slight Straub tail behaviour and piloerection” value with ICR mice [2] (IP, 128, 64 and 32 mg/kg, Example 18) is 2 of 3.
For the molecule `CN1CC[C@]23c4c5ccc(O)c4O[C@H]2[C@@H](O)C=C[C@H]3[C@H]1C5` [Morphine.HCl, reference compound], the “% Inhibition” value in the data set with ICR mice [3] was 100%. Besides, the “No. of Writhings Individual” value with ICR mice [3] (individual mice) is reported as 0. In addition, the “% Inhibition (prolongation of tail-flick response time)” value in the data set with ICR mice [4] (30 minutes) is “(100) %”. In addition, the “Response Time (Seconds) 30 Mins., Average” value in the data set on ICR mice [4] (30 minutes after administration) stood at 13.6 s. Also, in the data set on ICR mice [4] (individual mice, 30 minutes after administration, cut-off 15 seconds), the “Response Time (Seconds) 30 Mins.” value was >15.0 Seconds (3×) and 9.4 Seconds. The “Response Time (Seconds) 0 Time” value with ICR mice [4] (individual mice, pre-treatment (0 minutes)) is 6.3 Seconds (2×) and 6.2 Seconds and 6.5 Seconds. In addition, the “Response Time (Seconds) 0 Time, Average” value in the data set with ICR mice [4] (pre-treatment (0 minutes)) came out at 6.3 s. Also, in the data set on ICR mice [1] (3 mg/kg, Table 4), the “% Inhibition” value came to 100%; the “Number of Writhings Average” value is reported as 0; the “Number of Writhings Individual” value is 1 and 0 (2×). In the data set with ICR mice [1] (3 mg/kg, Table 5), the “% Inhibition” value is given as 100%, the “Number of Writhings Average” value was found to be 0 and the “Number of Writhings Individual” value turned out to be 0. Moreover, the “test animals exhibiting the Straub tail phenomenon” value in the data set on ICR mice [2] (3 mg/kg, Example 16) was 1 of 3. The “test animals with slight Straub tail phenomenon” value with ICR mice [2] (3 mg/kg, Example 18) is reported as 2 of 3.
With “(5α,6α)-7,8-didehydro-4,5-epoxy-17-(N,N′-bis-p-tolylcarboxamidino-3-aminopropyl)morphinan-3,6-diol [KRS-6-26]”, the “analgesic activity (≧50% reduction in writhes)” value in the data set on ICR mice [1] (doses of 128, 64, 32, 16, 8, 4, 2 and 1 mg/kg) was “significant activity”.
